Test results taken from article PMC11171218, “N-Benzylated 5-Hydroxybenzothiophene-2-carboxamides as Multi-Targeted Clk/Dyrk Inhibitors and Potential Anticancer Agents” (Cancers, 2024).

What was measured:
Dyrk1B = Dyrk1B (Homo sapiens, UniProt Q9Y463); assay: Z'-LYTE kinase inhibition assay, Dyrk1B; assay type: biochemical; conditions: for IC50: ATP conc. equivalent to Km; for inhibition at 1 µM: read-out: Dyrk1B % Inh. At 1 µM
Description: (§1) 3. Experimental procedure for protein kinases and inhibition assays.
(§2) 3.1 The Z ́ -LYTE biochemical assay for screening and IC 50 determination for Clk1, Dyrk1A, Dyrk1B, Clk2 and Clk3 kinases.
(§3) The assay employs a fluorescence-based, coupled-enzyme format and is based on the differential sensitivity of phosphorylated and non-phosphorylated peptides to proteolytic cleavage. The peptide substrate is labeled with two fluorophores-one at each end-that make up a FRET pair. In the primary reaction, the kinase transfers the gamma-phosphate of ATP to a single tyrosine, serine, or threonine residue in a synthetic FRET-peptide. In the secondary reaction, a site-specific protease recognizes and cleaves non-phosphorylated FRET-peptides. Phosphorylation of FRET-peptides suppresses cleavage by the Development Reagent. Cleavage disrupts FRET between the donor (i.e., coumarin) and acceptor (i.e., fluorescein) fluorophores on the FRET-peptide, whereas uncleaved, phosphorylated FRET-peptides maintain FRET. A ratiometric method, which calculates the ratio (the Emission Ratio) of donor emission to acceptor emission after excitation of the donor fluorophore at 400 nm, is used to quantitate reaction progress. Both cleaved and uncleaved FRET-peptides contribute to the fluorescence signals and therefore to the Emission Ratio. The extent of phosphorylation of the FRET-peptide can be calculated from the Emission Ratio. The Emission Ratio will remain low if the FRET-peptide is phosphorylated (i.e., no kinase inhibition) and will be high if the FRET-peptide is non-phosphorylated (i.e., kinase inhibition).
(§4) The IC 50 values were determined for compounds displaying significant % inhibition in the screening step. IC 50 determination was done through testing at a range of concentrations with two […]
two independent experiments. […]
3.1.3 Dyrk1B kinase assay specific conditions:
The 2X Dyrk1B / Ser/Thr 18 mixture is prepared in 50 mM HEPES pH 6.5, 0.01% BRIJ-35, 10 […]
mM MgCl2, 1 mM EGTA, 0.02% NaN3.
Development Reagent A is added. […]
MgCl2, 1 mM EGTA, 0.02% NaN3. […]

Clk1 = Clk1 (Homo sapiens, UniProt P49759); assay: Z'-LYTE kinase inhibition assay, Clk1; assay type: biochemical; conditions: for IC50: ATP conc. equivalent to Km; for inhibition at 1 µM: read-out: Clk1 % Inh. At 1 µM
Chain of Clk1 (P49759 whole entry): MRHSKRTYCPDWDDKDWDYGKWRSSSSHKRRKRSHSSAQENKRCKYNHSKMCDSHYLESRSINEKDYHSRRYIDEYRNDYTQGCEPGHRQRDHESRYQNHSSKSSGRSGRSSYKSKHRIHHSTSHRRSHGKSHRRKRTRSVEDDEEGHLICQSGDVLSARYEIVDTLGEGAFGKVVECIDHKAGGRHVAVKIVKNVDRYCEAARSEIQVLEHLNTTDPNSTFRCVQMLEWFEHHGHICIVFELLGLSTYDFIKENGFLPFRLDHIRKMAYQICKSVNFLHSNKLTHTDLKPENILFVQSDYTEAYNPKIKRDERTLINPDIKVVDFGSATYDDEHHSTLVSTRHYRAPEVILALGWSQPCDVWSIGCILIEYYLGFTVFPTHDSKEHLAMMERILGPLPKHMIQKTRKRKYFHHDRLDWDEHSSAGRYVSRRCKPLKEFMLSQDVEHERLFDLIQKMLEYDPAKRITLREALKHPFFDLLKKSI
Description: as §1, §2, §3, §4
two independent experiments.
3.1.1 Clk1 kinase assay specific conditions:
The 2x Clk1 / Ser/Thr 09 mixture is prepared in 50 mM HEPES pH 7.5, 0.01% BRIJ-35, 10 mM MgCl 2, 1 mM EGTA. The final 10 μL kinase reaction consists of 30 - 120 ng Clk1 and 2 μM Ser/Thr 09 in 50 mM HEPES pH 7.5, 0.01% BRIJ-35, 10 mM MgCl 2, 1 mM EGTA. After the 1 h

MCF-7 cells = assay: CCK-8 cell viability, MCF-7; assay type: cell-based; conditions: Homo sapiens, MCF7, 72 h, CCK-8, mean ± S.E.M. (n = 3), read-out: MCF-7 % Inh. at μM
Experimental: (§5) All cells were purchased from Bioresource Collection and Research Center (Hsinchu, Taiwan) and cultured in corresponding media supplemented with 10% fetal bovine serum, 1 × Antibiotic-Antimycotic at 37 °C in a humidified incubator with 5% CO2. […] T24 cells were cultured in McCoy’s 5a media. IEC-6 cells were cultured in DMEM media supplemented with 5% fetal bovine serum, 1 × Antibiotic–Antimycotic, and 0.1 unit/mL insulin.
(§6) Cells were incubated with the Cell Counting Kit-8 (CCK-8) reagent (TargetMol, Boston, MA, USA) at 37 °C for 2 h. The cell viability was determined by spectrophotometer at 450 nm.

Hela cells = assay: CCK-8 cell viability, Hela; assay type: cell-based; conditions: Homo sapiens, 72 h; for inhibition at 20 µM: CCK-8, mean ± S.E.M. (n = 3), read-out: Hela % Inh. at μM; for IC50: CCK-8, 50% inhibition of viability
Experimental: as §5, §6

GSG2 (Haspin) = molecular target: T1, GSG2 (Haspin) (Homo sapiens, UniProt Q8TF76); assay: Adapta universal kinase assay, Haspin; assay type: biochemical; conditions: for inhibition at 1 µM: 1 µM compound, screening by Thermo Fisher Scientific; for IC50: ATP concentration equivalent to Km (25 μM ATP)
T1 construct: purchased Thermo Fisher Scientific, Madison, WI, USA (assay run there)
T1 sequence (Q8TF76 1-798): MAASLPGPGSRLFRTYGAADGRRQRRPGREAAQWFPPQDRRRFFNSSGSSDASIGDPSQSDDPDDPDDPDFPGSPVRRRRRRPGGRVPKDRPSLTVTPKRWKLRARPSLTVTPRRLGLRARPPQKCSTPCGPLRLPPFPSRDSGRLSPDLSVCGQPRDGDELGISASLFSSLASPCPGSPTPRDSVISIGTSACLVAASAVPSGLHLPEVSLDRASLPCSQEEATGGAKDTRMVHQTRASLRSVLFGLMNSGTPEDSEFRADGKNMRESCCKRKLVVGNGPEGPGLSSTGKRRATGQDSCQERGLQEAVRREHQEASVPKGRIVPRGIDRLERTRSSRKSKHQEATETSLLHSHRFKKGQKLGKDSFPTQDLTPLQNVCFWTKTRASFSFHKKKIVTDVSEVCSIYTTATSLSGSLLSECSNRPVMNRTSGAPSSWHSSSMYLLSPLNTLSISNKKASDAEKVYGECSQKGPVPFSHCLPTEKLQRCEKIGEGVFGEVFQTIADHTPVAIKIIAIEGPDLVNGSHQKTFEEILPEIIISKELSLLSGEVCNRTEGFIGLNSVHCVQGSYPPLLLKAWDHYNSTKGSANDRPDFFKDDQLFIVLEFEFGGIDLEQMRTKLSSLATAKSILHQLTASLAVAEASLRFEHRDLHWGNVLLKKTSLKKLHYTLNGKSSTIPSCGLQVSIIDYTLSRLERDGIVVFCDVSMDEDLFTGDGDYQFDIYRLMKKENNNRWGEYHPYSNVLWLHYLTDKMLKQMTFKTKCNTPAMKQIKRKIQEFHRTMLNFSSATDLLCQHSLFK
Experimental: 3.2 The Adapta universal kinase assay for screening and IC 50 determination against haspin.
The haspin kinase assay was done at Thermo Fisher Scientific, Madison, WI, USA using a fluorescence-based immunoassay known as ‘The Adapta Universal Kinase Assay’, which detects the ADP produced by kinases utilizing the TR-FRET technology. The final 10 μL kinase reaction consists of 0.25 - 1 ng GSG2 (Haspin) and 100 μM of the substrate (Histone H3 (1-20) peptide) in […]
μM ATP. After an incubation time of 1 h at RT, 5 μL of a detection mix was added.
To determine the half maximal inhibitory concentration (IC 50), the assays were performed in duplicate in the absence or presence of increasing doses of the tested compounds.

Chain of Dyrk1B (Q9Y463 whole entry): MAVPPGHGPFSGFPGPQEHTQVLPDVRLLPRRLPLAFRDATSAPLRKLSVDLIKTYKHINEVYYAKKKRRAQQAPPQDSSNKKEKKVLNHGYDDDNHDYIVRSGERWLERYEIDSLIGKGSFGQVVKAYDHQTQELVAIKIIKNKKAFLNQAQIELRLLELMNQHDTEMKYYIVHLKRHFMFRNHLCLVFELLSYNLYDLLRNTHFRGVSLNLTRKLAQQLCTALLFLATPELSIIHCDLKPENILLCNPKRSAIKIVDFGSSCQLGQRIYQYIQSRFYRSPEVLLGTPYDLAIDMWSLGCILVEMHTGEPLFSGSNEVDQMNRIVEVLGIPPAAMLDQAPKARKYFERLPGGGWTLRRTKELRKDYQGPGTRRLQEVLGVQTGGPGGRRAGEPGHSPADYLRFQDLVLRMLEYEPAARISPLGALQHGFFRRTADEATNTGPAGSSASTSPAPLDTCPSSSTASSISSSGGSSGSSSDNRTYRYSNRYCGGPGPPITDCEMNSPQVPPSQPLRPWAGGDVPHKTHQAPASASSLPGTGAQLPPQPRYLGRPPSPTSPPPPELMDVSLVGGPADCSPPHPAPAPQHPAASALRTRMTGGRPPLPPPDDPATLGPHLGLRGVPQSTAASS

SMILES: O=C(NCc1cccc(Cl)c1)c1cc2cc(O)ccc2s1 [Compound 3, N-(3-Chlorobenzyl)-5-hydroxybenzo[b]thiophene-2-carboxamide]
- IC50 (Dyrk1B): 530 nM
- inhibition at 1 µM (Dyrk1B): 66%
- IC50 (Clk1): 257 nM
- inhibition at 1 µM (Clk1): 79%
- inhibition at 20 µM (MCF-7 cells): 15.6 ± 3.85%
- inhibition at 20 µM (Hela cells): 50.5 ± 3.93%
- melting point: 211.2 to 212.3 °C
- inhibition at 1 µM (GSG2 (Haspin)): 54%

SMILES: O=C(NCc1cccc(F)c1)c1cc2cc(O)ccc2s1 [Compound 6, N-(3-Fluorobenzyl)-5-hydroxybenzo[b]thiophene-2-carboxamide]
- IC50 (Dyrk1B): 406 nM
- inhibition at 1 µM (Dyrk1B): 71%
- IC50 (Clk1): 410 nM
- inhibition at 1 µM (Clk1): 72%
- inhibition at 20 µM (MCF-7 cells): 16.2 ± 2.2%
- inhibition at 20 µM (Hela cells): 53.3 ± 2.22%
- melting point: 176.7 to 177.7 °C
- inhibition at 1 µM (GSG2 (Haspin)): 83%
- IC50 (GSG2 (Haspin)): 207 nM

SMILES: COc1ccccc1CNC(=O)c1cc2cc(O)ccc2s1 [Compound 11, 5-Hydroxy-N-(2-methoxybenzyl)benzo[b]thiophene-2-carboxamide]
- IC50 (Dyrk1B): 578 nM
- inhibition at 1 µM (Dyrk1B): 64%
- IC50 (Clk1): 725 nM
- inhibition at 1 µM (Clk1): 60%
- inhibition at 20 µM (MCF-7 cells): 56.4 ± 4.47%
- inhibition at 20 µM (Hela cells): 62.1 ± 1.97%
- IC50 (Hela cells): 19300 nM
- melting point: 128.5 to 130.7 °C
- inhibition at 1 µM (GSG2 (Haspin)): 46%

SMILES: COc1cccc(CNC(=O)c2cc3cc(O)ccc3s2)c1 [Compound 12, 5-Hydroxy-N-(3-methoxybenzyl)benzo[b]thiophene-2-carboxamide]
- IC50 (Dyrk1B): 238 nM
- inhibition at 1 µM (Dyrk1B): 81%
- IC50 (Clk1): 153 nM
- inhibition at 1 µM (Clk1): 86%
- inhibition at 20 µM (MCF-7 cells): 93.5 ± 0.17%
- inhibition at 20 µM (Hela cells): 50.7 ± 2.41%
- inhibition at 1 µM (GSG2 (Haspin)): 85%
- IC50 (GSG2 (Haspin)): 167 nM

SMILES: O=C(NCc1cc(F)cc(F)c1)c1cc2cc(O)ccc2s1 [Compound 17, N-(3,5-Difluorobenzyl)-5-hydroxybenzo[b]thiophene-2-carboxamide]
- IC50 (Dyrk1B): 242 nM
- Improvement in inhibitory activity against Dyrk1B compared to compound 1 (Dyrk1B; ratio of IC50 vs compound 1): 4 fold
- inhibition at 1 µM (Dyrk1B): 81%
- IC50 (Clk1): 168 nM
- Improvement in inhibitory activity against Clk1 compared to compound 1 (Clk1; ratio of IC50 vs compound 1): 4 fold
- inhibition at 1 µM (Clk1): 85%
- inhibition at 20 µM (MCF-7 cells): 20.9 ± 2.02%
- inhibition at 20 µM (Hela cells): 60.9 ± 2.82%
- IC50 (Hela cells): 18100 nM
- inhibition at 1 µM (GSG2 (Haspin)): 80%
- IC50 (GSG2 (Haspin)): 256 nM
